From ChEMBL document CHEMBL1201862, “PubChem BioAssay data set” (2004)
The source made the active and inactive calls.

What was measured:
[1] = test system: Streptococcus; test: GAS UMAA2166 growth inhibition – luminescence, BacTiterGlo, counter-screen for streptokinase expression inhibitor project, dose response (AID 1915); format: functional, organism-based;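 further: potency for reduction of bacterial viability or growth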
[2] = target: T1, Streptokinase A (Streptococcus pyogenes serotype M1, UniProt P10520); test: viability-normalized secreted streptokinase activity reduction – plasminogen activation absorbance, OD405, dose response (AID 1914); format: functional, Streptococcus pyogenes M1 GAS;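 further: secreted streptokinase activity via plasminogen activation per viability signal from cell pellet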
T1 sequence (P10520 whole entry): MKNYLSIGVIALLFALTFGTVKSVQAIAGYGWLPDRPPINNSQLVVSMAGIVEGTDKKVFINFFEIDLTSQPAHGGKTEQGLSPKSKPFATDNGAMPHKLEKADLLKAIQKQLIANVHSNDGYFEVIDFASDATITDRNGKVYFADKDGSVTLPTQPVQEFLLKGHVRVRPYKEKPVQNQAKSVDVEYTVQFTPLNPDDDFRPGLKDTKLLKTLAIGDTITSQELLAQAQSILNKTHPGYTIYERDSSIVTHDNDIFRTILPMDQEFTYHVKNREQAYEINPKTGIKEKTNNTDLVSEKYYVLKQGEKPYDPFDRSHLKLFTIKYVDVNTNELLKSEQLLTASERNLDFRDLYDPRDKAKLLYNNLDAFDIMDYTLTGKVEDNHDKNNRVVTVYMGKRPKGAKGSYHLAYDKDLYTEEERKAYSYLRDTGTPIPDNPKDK

[3] = test system: Streptococcus sp. 'group A'; test: Streptococcus pyogenes SK(-)GAS viability under kanamycin – luminescence, BacTiterGlo, confirmation, counter-screen for streptokinase expression inhibitor project, dose response (AID 1900); format: functional, organism-based
[4] = target: T2, Ubiquitin-conjugating enzyme E2 N (Homo sapiens, UniProt P61088); format: functional;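 further: Dose-response confirmation in a TR-FRET assay detecting UBC13-driven polyubiquitin chain formation, inhibition measured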
T2 sequence (P61088 whole entry): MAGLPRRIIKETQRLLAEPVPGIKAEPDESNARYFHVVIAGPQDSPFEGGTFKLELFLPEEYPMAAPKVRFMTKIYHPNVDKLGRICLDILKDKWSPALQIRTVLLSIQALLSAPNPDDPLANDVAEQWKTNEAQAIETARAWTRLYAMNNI

[5] = target: T3, Calpain-2 catalytic subunit (Sus scrofa, UniProt P43367); test: m-calpain protease blockers, concentration series – biochemical, fluorogenic peptide substrate, dose response (AID 1420); format: functional
T3 sequence (P43367 whole entry): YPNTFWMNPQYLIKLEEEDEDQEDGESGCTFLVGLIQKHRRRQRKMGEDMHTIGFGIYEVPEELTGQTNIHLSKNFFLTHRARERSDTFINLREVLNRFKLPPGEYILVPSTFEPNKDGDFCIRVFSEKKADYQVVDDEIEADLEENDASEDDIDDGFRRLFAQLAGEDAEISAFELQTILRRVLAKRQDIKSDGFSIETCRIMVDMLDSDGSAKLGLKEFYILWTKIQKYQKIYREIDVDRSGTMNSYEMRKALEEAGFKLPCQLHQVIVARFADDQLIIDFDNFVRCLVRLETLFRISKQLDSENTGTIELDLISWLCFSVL

[6] = target: Cytochrome P450 3A4 (Homo sapiens, UniProt P08684); settings: Potency;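 further: confirmatory qHTS run detecting inhibitors and substrates of CYP3A4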
[7] = target: T4, Zinc finger protein mex-5 (Caenorhabditis elegans, UniProt Q9XUB2); test: potency of MEX-5 RNA-binding blockers – biochemical, C. elegans, fluorescence polarization, dose response (AID 1960)
T4 sequence (Q9XUB2 whole entry): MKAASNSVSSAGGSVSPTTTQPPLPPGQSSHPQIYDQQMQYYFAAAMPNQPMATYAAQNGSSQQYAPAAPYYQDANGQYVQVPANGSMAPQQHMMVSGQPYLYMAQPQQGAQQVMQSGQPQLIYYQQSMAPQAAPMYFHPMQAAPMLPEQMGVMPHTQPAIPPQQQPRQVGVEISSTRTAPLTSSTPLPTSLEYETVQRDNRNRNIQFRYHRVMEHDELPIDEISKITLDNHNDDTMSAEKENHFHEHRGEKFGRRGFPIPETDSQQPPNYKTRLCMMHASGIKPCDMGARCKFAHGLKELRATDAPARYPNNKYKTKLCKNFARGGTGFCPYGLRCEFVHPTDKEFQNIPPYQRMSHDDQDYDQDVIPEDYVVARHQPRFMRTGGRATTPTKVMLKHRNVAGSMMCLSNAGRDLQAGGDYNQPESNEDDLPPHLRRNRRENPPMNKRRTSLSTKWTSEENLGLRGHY

[8] = target: T5, RNA-binding protein pos-1 (Caenorhabditis elegans, UniProt G5EF15); test: disruptors of C. elegans POS-1 RNA interaction – biochemical, fluorescence polarization, dose response (AID 1964);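 further: purified POS-1 fused to maltose binding protein made in E. coli; potency of compounds blocking POS-1 binding to fluorescent RNA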
T5 sequence (G5EF15 whole entry): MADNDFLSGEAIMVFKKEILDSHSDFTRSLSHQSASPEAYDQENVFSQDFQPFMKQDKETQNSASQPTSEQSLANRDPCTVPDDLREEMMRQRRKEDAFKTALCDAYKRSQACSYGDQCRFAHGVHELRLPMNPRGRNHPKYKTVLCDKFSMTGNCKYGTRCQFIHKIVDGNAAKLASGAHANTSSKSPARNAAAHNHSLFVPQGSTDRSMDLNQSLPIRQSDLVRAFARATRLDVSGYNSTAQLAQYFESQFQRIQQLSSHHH

[9] = HIV-1 AD8 envelope cell-cell fusion blockers – cherry-pick, dose response (AID 652062); format: functional, cell-based;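 further: luciferase signal from cell-cell fusion driven by HIV-1 clade B AD8 Env; potency is for inhibitors of fusion seen as a drop in luminescence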
[10] = target: Cytochrome P450 2C19 (Homo sapiens, UniProt P33261); test: Cytochrome panel assay with activity outcomes. Panel member name: p450-cyp2c19 Compounds with AC50 equal or less than 10 uM are considered active; format: functional; settings: read-out: AC50
[11] = target: Cytochrome P450 2D6 (Homo sapiens, UniProt P10635);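 further: CYP2D6 member of a cytochrome P450 panel assay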
[12] = cells; format: functional
[13] = reduction of Shn3 3'UTR-driven luciferase in osteoblasts – cell-based, Clone20 osteoblasts, firefly luciferase, cherry-picked, dose response (AID 624132); format: functional;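 further: firefly luciferase luminescence from reporter carrying the Shn3 3'UTR in osteoblasts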
[14] = non-specific 3'UTR reporter inhibition in Clone20-Shn3RL – cell-based, Renilla luciferase, cherry-picked, counter-screen for Shn3 inhibitor project, dose response (AID 624133); format: functional
[15] = THP-1 cell cytotoxicity, dose response, cytotoxicity control for non-replicating M. tuberculosis project (AID 489025); format: functional
[16] = Trypanosoma cruzi growth suppression in host cells – NIH3T3 host cells, beta-gal luminescence, confirmation (AID 2044); format: functional, cell-based;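 further: intracellular parasites grown in NIH/3T3 mouse fibroblasts as host cells; luminescent beta-galactosidase reporter signal from transgenic T. cruzi replicating inside host cells; inhibitors lower the luminescence signal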
[17] = NIH3T3 cell viability loss – ATP luminescence, mouse fibroblasts, counter-screen, dose response (AID 2010); format: functional, cell-based;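 further: cells exposed to compound for about 90 hours before reading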
[18] = P. falciparum Dd2 growth inhibitors, dose response, SYBR Green, cherry-picked samples (AID 1159567); format: functional, cell-based

Cytochrome P450 3A4, sequence (P08684 whole entry): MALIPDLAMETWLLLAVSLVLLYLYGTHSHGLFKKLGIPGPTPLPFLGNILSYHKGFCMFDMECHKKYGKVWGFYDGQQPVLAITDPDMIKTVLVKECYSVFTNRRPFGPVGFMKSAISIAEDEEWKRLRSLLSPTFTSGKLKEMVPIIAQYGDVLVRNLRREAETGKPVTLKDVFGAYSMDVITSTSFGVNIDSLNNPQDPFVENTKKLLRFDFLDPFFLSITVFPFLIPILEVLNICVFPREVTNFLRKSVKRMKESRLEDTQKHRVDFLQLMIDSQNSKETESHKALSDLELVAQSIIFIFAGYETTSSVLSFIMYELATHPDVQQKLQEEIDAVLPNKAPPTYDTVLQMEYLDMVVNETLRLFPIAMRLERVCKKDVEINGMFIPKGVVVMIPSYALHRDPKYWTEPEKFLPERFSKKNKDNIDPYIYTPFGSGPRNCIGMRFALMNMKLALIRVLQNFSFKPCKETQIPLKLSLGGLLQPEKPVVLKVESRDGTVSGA
Cytochrome P450 2C19, sequence (P33261 whole entry): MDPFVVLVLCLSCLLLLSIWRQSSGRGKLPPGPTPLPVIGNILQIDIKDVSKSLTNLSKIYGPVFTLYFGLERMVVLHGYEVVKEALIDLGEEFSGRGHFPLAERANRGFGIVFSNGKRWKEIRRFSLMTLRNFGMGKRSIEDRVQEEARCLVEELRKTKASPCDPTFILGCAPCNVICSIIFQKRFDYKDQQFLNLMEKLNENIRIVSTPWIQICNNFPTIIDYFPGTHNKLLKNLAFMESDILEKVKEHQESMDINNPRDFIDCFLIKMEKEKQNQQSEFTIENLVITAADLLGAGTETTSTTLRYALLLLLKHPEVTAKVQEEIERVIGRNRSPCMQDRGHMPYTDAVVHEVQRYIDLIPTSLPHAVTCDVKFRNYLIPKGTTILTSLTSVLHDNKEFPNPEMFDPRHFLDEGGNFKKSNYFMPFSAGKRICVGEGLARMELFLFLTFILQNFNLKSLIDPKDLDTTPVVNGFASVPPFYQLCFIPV
Cytochrome P450 2D6, sequence (P10635 whole entry): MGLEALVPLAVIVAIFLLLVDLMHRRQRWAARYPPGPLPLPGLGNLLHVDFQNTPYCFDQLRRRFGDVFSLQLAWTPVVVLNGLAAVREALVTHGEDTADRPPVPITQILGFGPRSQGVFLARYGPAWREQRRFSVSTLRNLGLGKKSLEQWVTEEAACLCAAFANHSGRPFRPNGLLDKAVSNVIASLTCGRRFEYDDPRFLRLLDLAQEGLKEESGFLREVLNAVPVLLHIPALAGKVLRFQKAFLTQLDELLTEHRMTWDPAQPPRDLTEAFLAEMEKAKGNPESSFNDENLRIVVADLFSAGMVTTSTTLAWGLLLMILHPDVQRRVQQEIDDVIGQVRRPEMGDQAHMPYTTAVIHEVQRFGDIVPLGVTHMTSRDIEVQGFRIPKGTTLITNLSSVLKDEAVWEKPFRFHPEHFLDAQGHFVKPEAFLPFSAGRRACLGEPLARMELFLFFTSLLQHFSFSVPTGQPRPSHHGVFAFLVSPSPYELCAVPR

Compound: Cc1cccc(Cn2nc(-n3cccc3)c3c(C)cc(C)nc32)c1
- EC50 [1]: > 150 µM (not active)
- EC50 [2]: 15.1 µM (active)
- EC50 [3]: 12 µM (active)

Compound: CC1(C)Cc2c(c(N3CCOCC3)nc3sc4c(=O)nc[nH]c4c23)CS1
- IC50 [4]: > 20 µM (inactive)

Compound: COC(=O)c1c(NC(NC(C)=O)C(Cl)(Cl)Cl)sc2c1CCCC2 (centres undefined)
- IC50 [5]: > 50 µM (not active)

Compound: CC(=O)OC1C2C(OC(=O)Cc3ccccc3)C(C)CC2(OC(C)=O)C(=O)/C(C)=C/C2C(CC[C@@]13CO3)C2(C)C (some centres undefined)
- AC50 [6]: 3.98 µM (inconclusive)

Compound: CCN(CC)CCn1c(-c2ccccc2)nc2c(NC3CCCCC3)nc(C)nc21
- AC50 [6]: 15.8 µM (inconclusive)

Compound: O=C(C1=C(O)C(=O)N(c2ncccn2)C1c1cccs1)c1ccco1 (centres undefined)
- EC50 [7]: 31.5 µM (active)
- EC50 [8]: 39.9 µM (active)

Compound: CCCCOc1ccc(S(=O)(=O)Nc2cccnc2)cc1
- AC50 [9]: 7.89 µM (active)
- AC50 [10]: 0.355 µM (inconclusive)
- AC50 [11]: 25.1 µM (inconclusive)

Compound: N#CC1=C(N)OC2=C(C(=O)CCC2)C1c1ccc2c(c1)OCO2 (centres undefined)
- EC50 [7]: > 300 µM (not active)
- EC50 [8]: > 300 µM (not active)

Compound: O=P(N[C@@H](c1ccccc1)[C@@H]1C[C@H]1CO)(c1ccccc1)c1ccccc1
- AC50 [6]: 15.8 µM (inconclusive)

Compound: CC1(OC(=O)c2ccc(Cl)nc2)C(=O)C=C2C=C(c3ccsc3)OC=C2C1=O (centres undefined)
- EC50 [7]: 41.9 µM (active)
- EC50 [8]: 54.4 µM (active)

Compound: CC(=O)Nc1ccc2c(c1)C(=O)N(c1cccc(C)c1)C2=O
- IC50 [4]: > 20 µM (inactive)

Compound: O=C(CSc1nnc(CNC(=O)c2ccccc2)o1)NCCc1ccccc1
- EC50 [1]: > 150 µM (not active)
- EC50 [2]: > 150 µM (not active)
- EC50 [3]: > 150 µM (not active)

Compound: N#C/C(=C(/O)c1cc2ccccc2o1)c1nc2ccccc2s1
- EC50 [1]: 42.4 µM (active)
- EC50 [7]: > 300 µM (not active)
- EC50 [3]: 9.28 µM (active)
- EC50 [8]: > 300 µM (not active)

Compound: C[C@@H]1CC2(OC3C[C@@]4(C)C5=CC[C@H]6C(C)(C)C(O[C@@H]7OC[C@@H](O)[C@H](O)[C@H]7O)CC[C@@]67C[C@@]57CC[C@]4(C)C31)OC(O)C1(C)OC21 (some centres undefined)
- AC50 [6]: 5.01 µM (inconclusive)

Compound: Cc1ccc(CCC(=O)Nc2ccc(C)c(C)c2)o1
- IC50 [12]: 49.8 µM (active)

Compound: COc1ccc(COc2cccc(C=O)c2)cc1
- IC50 [12]: 30.9 µM (active)

Compound: Cn1nc(N)c2c(-c3ccc(Cl)cc3)c(C#N)c(N)nc21
- IC50 [4]: > 20 µM (inactive)

Compound: CCCCNc1nc(C)nc2c1nc(-c1ccccc1)n2CCCN(CC)CC
- AC50 [6]: 25.1 µM (inconclusive)

Compound: O=C(c1ccc(COc2ccc(Cl)cc2)cc1)N1CCCCC1
- IC50 [5]: 10.4 µM (not active)

Compound: CCC(=O)NC(=S)NNC(=O)c1ccc(OC)cc1
- IC50 [4]: > 20 µM (inactive)

Compound: COC(=O)CNC(=O)C1(C)C=CC2(CCCCC2)N1C(C)=O (centres undefined)
- AC50 [6]: 25.1 µM (inconclusive)

Compound: O=C(NCc1cccnc1)c1ccccc1CCc1ccccc1
- IC50 [5]: 18.8 µM (not active)

Compound: Cc1ccc2cc(CN(CC3CCCO3)C(=O)NC3CCCCC3)c(O)nc2c1C (centres undefined)
- AC50 [13]: 4.49 µM (active)
- AC50 [14]: 9.37 µM (active)

Compound: COC(=O)C1=C(C)N(CC2CC2)C(NCc2cccc(Cl)c2)=N[C@H]1c1ccccc1
- CC50 [15]: 22.5 µM (active)

Compound: COC(=O)c1cccc(NC(=O)Cc2coc3cc(OC)ccc23)c1
- IC50 [4]: > 20 µM (inactive)

Compound: CCOC(=O)Cc1nc2cc(Cl)ccc2o1
- IC50 [12]: 18.6 µM (active)

Compound: COc1ccc(CNc2oc(COc3ccc(Cl)cc3)nc2C#N)cc1
- IC50 [5]: 4 µM (not active)
- EC50 [16]: 1.36 µM (active)
- EC50 [17]: > 60 µM (not active)

Compound: O=C(C1CCC(=O)N1C1CCCCC1)N1CCC2(CC1)OCCO2 (centres undefined)
- IC50 [5]: 8.43 µM (not active)

Compound: Nc1nc(NC(=O)/C=C/c2ccc(F)cc2)nn1-c1ccccc1
- EC50 [1]: > 150 µM (not active)
- EC50 [2]: > 150 µM (not active)
- EC50 [3]: 3.91 µM (active)

Compound: Nc1cc(Cl)c([N+](=O)[O-])cc1O
- AC50 [6]: 31.6 µM (inconclusive)

Compound: O=c1cc(CO)oc(C(Nc2cccc([N+](=O)[O-])c2)c2ccccn2)c1O (centres undefined)
- IC50 [4]: > 20 µM (inactive)

Compound: C=CCn1c(=O)/c(=C/c2ccc(C)o2)s/c1=C(/C#N)C(=O)c1ccccc1
- EC50 [7]: > 300 µM (inconclusive)

Compound: COc1ccccc1/C=N/NC(=O)c1ccc(Br)cc1
- IC50 [5]: 45.9 µM (not active)

Compound: C=CCn1c(COc2ccccc2)nnc1SCC(=O)N/N=C/c1cc(Cl)ccc1O
- EC50 [1]: 48.1 µM (active)
- EC50 [2]: > 150 µM (not active)
- EC50 [3]: 4.37 µM (active)

Compound: CCC(C)[C@@H](N)C(=O)N/N=C/c1cccc2nccnc12 (some centres undefined)
- EC50 [7]: > 300 µM (not active)
- EC50 [8]: > 300 µM (not active)

Compound: CCCC/N=C(/C)c1c(O)oc2ccccc2c1=O
- IC50 [5]: 19.7 µM (not active)

Compound: N#Cc1ccc(-c2ccc([C@@H]3[C@@H]4CN(Cc5cocn5)C[C@H]3N4)cc2)cc1
- AC50 [18]: 3.73 µM (active)

Compound: COc1ccc2c3c(n(C)c2c1)[C@H](CO)N(C(=O)Nc1ccc(F)cc1)CC31CN(Cc2cccnc2)C1
- AC50 [18]: 3.4 µM (active)

Compound: COc1ccc2c3c([nH]c2c1)[C@H](CO)N(Cc1nccs1)CC31CN(Cc2cccnc2)C1
- AC50 [18]: 10.7 µM (active)

Compound: Cc1ccccc1S(=O)(=O)N1C[C@@H]2N[C@H](C1)[C@@H]2c1ccc(-c2ccc(C#N)cc2)cc1
- AC50 [18]: 3.32 µM (active)

Compound: COc1ccc2c3c(n(C)c2c1)[C@H](CO)N(C(=O)c1cccc(F)c1)CC31CN(C(=O)c2cccc(F)c2)C1
- AC50 [18]: 9.32 µM (active)

Compound: CCN1/C(=C/C(C)=O)Sc2ccc(OC)cc21
- AC50 [6]: 25.1 µM (inconclusive)

Compound: COc1cc(-c2coc3cc(OCc4ccccc4)c(OC)c(O)c3c2=O)cc(O)c1OC [IRIGENIN, 7-BENZYL ETHER]
- AC50 [6]: 15.8 µM (inconclusive)

Compound: COC1=CC(=O)C(O)=C/C1=C\C=C\c1ccccc1 [OBTUSAQUINONE]
- AC50 [6]: 25.1 µM (inconclusive)
